From publication PMC5784920, “Inhibition of α-glucosidase, α-amylase, and aldose reductase by potato polyphenolic compounds” (PLoS ONE, 2018) come the findings set out here.

The test system of data set [1] is T1, α-glucosidase.
T1 construct: gene MAL12; introduction speaks of intestinal enzyme
In words: p-nitrophenol release at […] nm, Lineweaver-Burk. In kind it is biochemical. The settings on record: pH 6.5 phosphate; no inhibitor.

The test system of data set [2] is O=C[C@H](O)CO. In words: purified protein. As to conditions: NADPH cofactor; no inhibitor; varied substrate taken as glyceraldehyde (D/L not told).

By Km is commonly meant the substrate concentration at which the rate is half of its maximum. Consider `O=[N+]([O-])c1ccc(O[C@H]2O[C@H](CO)[C@@H](O)[C@H](O)[C@H]2O)cc1` [PNPG], for which the Km in data set [1] was determined as 4.44 mM. With aldose reductase (AR) (Homo sapiens), in data set [2], the Km is recorded as 3.03 mM.
